# Results taken from patent publication US20060246026A1, “Barrier formulation comprising a silicone based emulsion” (priority 2003, published 2006).
# Tested on: bacterial counts on the fingertips
# Experiment: prEN 12791 in vivo anti-microbial activity on fingertips of volunteers
# Set-up: species or system human
# Details: after 3 minutes (immediate); 20 volunteers; 60% propanol compared with the formulation (p<0.0001)
# Procedure: The anti-microbial efficacy of the formulation of Example 5 was assessed in the clinical setting. The acceptability of the formulation of Example 5 by health care workers (HCW) was investigated. In vitro and in vivo assessment of the formulation was undertaken in accordance with European standards currently used for assessing hygienic and surgical rubs and washes (prEN 12054 and prEN 12791).
# prEN 12054 and prEN 12791 (European Standards for Assessing Hygienic and Surgical Hand Rubs and Washes) • In vitro antibacterial efficacy of the formulation was assessed for anti-microbial activity against Staphylococcus aureus ATCC 6538, Enterococcus hirae ATCC 10541, Pseudomonas aeruginosa ATCC 15442 and Escherichia coli NCTC 10536 in accordance with prEN 12054. In vivo anti-microbial activity of the formulation was compared with 60% (v/v) […] (gold standard) in accordance with […]. Twenty laboratory volunteers participated in the assessment of the formulation in accordance to prEN 12791.
smiles,measurement,value
"CCCO [60% propanol, propanol]","Mean reduction factor in the bacterial counts on the fingertips, immediate",significantly higher mean reduction factor
